Measurements from PMC8228075, “In Vitro and In Silico Characterization of G-Protein Coupled Receptor (GPCR) Targets of Phlorofucofuroeckol-A and Dieckol” (Marine Drugs, 2021).
Values joined by “and” are separate entries in the source; they are usually repeats but may differ in a detail not shown here. Equal values may be shown once.

How the values were obtained:
Assay type in all cases: cell-based
[1] = target: T1, Alpha-2C adrenergic receptor (hα2CAR) (Homo sapiens, UniProt P18825); assay: hα2CAR functional antagonist assay (cAMP, HTRF, CHO cells); details: read-out: Antagonist Effect
T1 construct: host or cells: CHO cells
T1 sequence (P18825 1-462): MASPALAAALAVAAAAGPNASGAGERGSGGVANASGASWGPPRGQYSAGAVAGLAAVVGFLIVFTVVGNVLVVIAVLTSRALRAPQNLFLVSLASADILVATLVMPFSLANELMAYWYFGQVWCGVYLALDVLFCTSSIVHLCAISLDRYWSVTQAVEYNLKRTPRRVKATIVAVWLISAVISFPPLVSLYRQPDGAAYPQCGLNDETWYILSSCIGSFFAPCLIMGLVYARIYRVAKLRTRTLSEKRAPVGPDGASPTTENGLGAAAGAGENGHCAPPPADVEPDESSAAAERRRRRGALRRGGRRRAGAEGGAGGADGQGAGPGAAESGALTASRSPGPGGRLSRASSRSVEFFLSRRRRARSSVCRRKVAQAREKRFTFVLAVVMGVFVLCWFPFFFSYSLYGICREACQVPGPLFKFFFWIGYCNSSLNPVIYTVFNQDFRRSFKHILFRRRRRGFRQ
Experimental: (§1) The in-house assay protocol and experimental conditions are reported in our previous reports. The functional effect of dieckol and PFF-A was characterized based on their modulation effect on cytosolic Ca^2+ ion mobilization using a fluorimetric detection method or by measuring their effect on cAMP modulation using homogeneous time-resolved fluorescence (HTRF) detection.
(§2) Functional activity of phlorotannins over hA2AR, hα2CAR, hCB1R, GLP-1R, and h5-HT1BR was determined by measuring their effects on cAMP production by the HTRF detection method using transected cells expressing human cloned receptors.
(§3) After 10 min at 37 °C, the cells were lysed and the fluorescence acceptor (D2-labeled cAMP) and fluorescence donor (anti-cAMP antibody labeled with europium cryptate) were added.

h5-HT1AR = target: T2, h5-HT1AR (Homo sapiens, UniProt P08908); assay: h5-HT1AR functional antagonist assay (Ca2+ mobilization, Ba/F3 cells); details: for Antagonist Effect: 50 µM, % inhibition of control response to 30 nM serotonin; for IC50: antagonist effect, mean ± SD, n = 3
T2 construct: host or cells: Ba/F3-5HT1AR cells
T2 sequence (P08908 1-422): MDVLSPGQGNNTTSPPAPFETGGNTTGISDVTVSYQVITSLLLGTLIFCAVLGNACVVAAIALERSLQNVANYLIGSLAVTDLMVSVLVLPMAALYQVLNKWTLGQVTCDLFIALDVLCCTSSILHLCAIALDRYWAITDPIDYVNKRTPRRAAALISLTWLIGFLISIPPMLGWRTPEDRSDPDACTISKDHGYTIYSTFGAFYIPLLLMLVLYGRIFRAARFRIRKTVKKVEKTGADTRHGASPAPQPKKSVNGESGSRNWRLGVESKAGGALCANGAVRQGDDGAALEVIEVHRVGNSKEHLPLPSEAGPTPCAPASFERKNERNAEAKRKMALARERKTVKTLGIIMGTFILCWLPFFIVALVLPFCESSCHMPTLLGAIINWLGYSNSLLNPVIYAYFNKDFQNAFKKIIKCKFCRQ
Experimental: as §1
In brief, Ba/F3-5HT1AR cells were first suspended in HBSS buffer (Invitrogen, Carlsbad, CA, USA) complemented with 20 mM HEPES buffer (pH 7.4). Then, the cells were distributed into microplates at a density of 1 × 10^6 cells/well. Subsequently, fluorescent probe (Fluo8, AAT Bioquest) mixed with probenecid in HBSS buffer (Invitrogen, Carlsbad, CA, USA) supplemented with 20 mM HEPES (Invitrogen) (pH 7.4) was added to each well, and the plates were incubated for 60 min at 37 °C. […] Fluorescence intensity was measured which varied in proportion to the free cytosolic Ca^2+ ion concentration.

[2] = target: T3, Cannabinoid receptor 1 (CB1R) (Homo sapiens, UniProt P21554); assay: hCB1R functional antagonist assay (cAMP, HTRF, CHO cells); details: CHO, read-out: Antagonist Effect
T3 construct: host or cells: CHO cells
Experimental: as §1, §2
The transfected CHO cells were suspended in HBSS buffer (Invitrogen) complemented with 20 mM HEPES (pH 7.4). […] After 30 min of incubation at 37 °C, the cells were lysed and the fluorescence acceptor (D2-labeled cAMP) and fluorescence donor (anti-cAMP antibody labeled with europium cryptate) were added.

[3] = target: T1, Alpha-2C adrenergic receptor (hα2CAR); assay: hα2CAR functional agonist assay (cAMP, HTRF, CHO cells); details: for Agonist Effect: % of control response to 1 µM epinephrine; for EC50: agonist effect, mean ± SD, n = 3
Experimental: as §1, §2, §3

[4] = target: T4, Glucagon-like peptide-1 receptor (GLP-1) (Mus musculus, UniProt O35659); assay: GLP-1R functional agonist assay (cAMP, HTRF, βTC6 cells); details: 100 µM; % of control response to 100 nM GLP-1(7–37)
T4 construct: mouse GLP-1 receptor-expressed βTC6 cells; host or cells: βTC6 cells
T4 sequence (O35659 22-463): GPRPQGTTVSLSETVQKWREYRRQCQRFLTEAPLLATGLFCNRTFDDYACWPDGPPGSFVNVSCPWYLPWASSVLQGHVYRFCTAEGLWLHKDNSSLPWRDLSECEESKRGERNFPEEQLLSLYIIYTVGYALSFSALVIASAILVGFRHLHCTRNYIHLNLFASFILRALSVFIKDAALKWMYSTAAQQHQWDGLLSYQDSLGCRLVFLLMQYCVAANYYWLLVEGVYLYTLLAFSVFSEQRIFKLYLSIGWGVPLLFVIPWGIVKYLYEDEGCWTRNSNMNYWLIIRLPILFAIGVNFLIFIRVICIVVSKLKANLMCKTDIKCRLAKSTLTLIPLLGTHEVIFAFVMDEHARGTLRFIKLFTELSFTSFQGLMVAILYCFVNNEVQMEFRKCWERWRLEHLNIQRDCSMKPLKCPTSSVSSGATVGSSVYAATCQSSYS
Experimental: as §1, §2
The HBSS buffer (Invitrogen) complemented with 20 mM HEPES (pH 7.4) and 500 µM IBMX was used to suspend and distribute the βTC6 cells at a density of 1.5x10^4 cells/well. The plate was then incubated for 10 min at RT in the presence of HBSS (basal and stimulated control), the test compound, or the reference agonist and antagonist. […] Following incubation, the cells were lysed and the fluorescence acceptor (D2-labeled cAMP) and fluorescence donor (anti-cAMP antibody labeled with europium cryptate) were added.

[5] = BaF3, read-out: Antagonist Effect

T3 sequence (P21554 whole entry): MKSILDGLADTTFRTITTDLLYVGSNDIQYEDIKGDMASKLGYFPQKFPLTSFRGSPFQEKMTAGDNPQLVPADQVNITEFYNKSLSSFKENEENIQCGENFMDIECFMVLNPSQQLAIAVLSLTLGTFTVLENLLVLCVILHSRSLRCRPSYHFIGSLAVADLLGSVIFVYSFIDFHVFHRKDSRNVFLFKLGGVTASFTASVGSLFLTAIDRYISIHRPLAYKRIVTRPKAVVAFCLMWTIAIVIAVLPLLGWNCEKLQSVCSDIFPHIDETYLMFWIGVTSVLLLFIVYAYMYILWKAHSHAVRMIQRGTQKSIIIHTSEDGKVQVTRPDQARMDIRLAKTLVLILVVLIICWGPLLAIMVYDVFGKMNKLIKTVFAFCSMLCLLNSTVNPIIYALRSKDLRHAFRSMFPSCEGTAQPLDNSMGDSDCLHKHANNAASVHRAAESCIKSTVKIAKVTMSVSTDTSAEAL

Row | Structure (SMILES) | inhibition at 100 µM [1] | Antagonist Effect (h5-HT1AR) | inhibition at 100 µM (h5-HT1AR; [5]) | inhibition at 200 µM (h5-HT1AR; [5]) | IC50 (h5-HT1AR) | inhibition at 100 µM [2] | Agonist Effect ([3]; 100 µM) | Agonist Effect ([3]; 150 µM) | Agonist Effect ([3]; 200 µM) | EC50 [3] | Agonist Effect [4] | inhibition at 12.5 µM (h5-HT1AR; [5]) | inhibition at 25 µM (h5-HT1AR; [5]) | Agonist Effect ([3]; 12.5 µM) | Agonist Effect ([3]; 25 µM) | Agonist Effect ([3]; 50 µM)
1 | Oc1cc(O)cc(Oc2c(O)cc(O)c3c2Oc2c(O)cc(Oc4c(O)cc(Oc5c(O)cc(O)c6c5Oc5c(O)cc(O)cc5O6)cc4O)cc2O3)c1 [Dieckol, dieckol] | -1.2 ± 6.08% | 54.7 ± 1.7% | 91 ± 3.11% | 100.9 ± 0.57% | 43.3 ± 3.22 µM | 159 ± 17.8% | 52.4 ± 4.24% | 73.0 ± 6.42% | 74.77 ± 6.60% | 98.8 ± 7.71 µM | −16.3 ± 1.13% |  |  |  |  | 
2 | Oc1cc(O)cc(Oc2c(O)cc(O)c3c2Oc2c(O)cc4oc5c(Oc6cc(O)cc(O)c6)c(O)cc(O)c5c4c2O3)c1 [PFF-A, phlorofucofuroeckol-A] | 19.2 ± 9.76% | 85.55 ± 8.41% | 77 ± 11% |  | 17.8 ± 3.42 µM | 21.4 ± 0.49% | 83.8 ± 0.07% |  |  | 23.7 ± 3.32 µM | −15.5 ± 2.55% | 37.4 ± 2.19% | 68.2 ± 9.89% | 22.03 ± 6.61% | 55% and 55.0 ± 9.13% | 62.27 ± 6.53%
